According to US10167279B2 (NOVARTIS AG, priority 2014, dated 2019):

molecular target: C-Raf FL (Homo sapiens (Human), UniProt P04049, Y340E/Y341E); experiment: In vitro Raf activity determination (Alpha Screen, phospho-MEK), C-Raf FL (full length, Y340E/Y341E); format: biochemical; details: ATP 1 μM; 60 min pre-incubation; 1 hour reaction; column head does not say FL or TR
Method in brief: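 Sf9-expressed C-Raf incubated with biotinylated kinase-dead MEK1 (K97R) in 50 mM Tris pH 7.5, 15 mM MgCl2, 0.01% BSA, 1 mM DTT with compound, 60 min at room temperature. Phospho-MEK detected by anti-p-MEK AlphaScreen luminescence; IC50 by non-linear regression.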

Sequence of C-Raf FL (P04049 whole entry Y340E/Y341E): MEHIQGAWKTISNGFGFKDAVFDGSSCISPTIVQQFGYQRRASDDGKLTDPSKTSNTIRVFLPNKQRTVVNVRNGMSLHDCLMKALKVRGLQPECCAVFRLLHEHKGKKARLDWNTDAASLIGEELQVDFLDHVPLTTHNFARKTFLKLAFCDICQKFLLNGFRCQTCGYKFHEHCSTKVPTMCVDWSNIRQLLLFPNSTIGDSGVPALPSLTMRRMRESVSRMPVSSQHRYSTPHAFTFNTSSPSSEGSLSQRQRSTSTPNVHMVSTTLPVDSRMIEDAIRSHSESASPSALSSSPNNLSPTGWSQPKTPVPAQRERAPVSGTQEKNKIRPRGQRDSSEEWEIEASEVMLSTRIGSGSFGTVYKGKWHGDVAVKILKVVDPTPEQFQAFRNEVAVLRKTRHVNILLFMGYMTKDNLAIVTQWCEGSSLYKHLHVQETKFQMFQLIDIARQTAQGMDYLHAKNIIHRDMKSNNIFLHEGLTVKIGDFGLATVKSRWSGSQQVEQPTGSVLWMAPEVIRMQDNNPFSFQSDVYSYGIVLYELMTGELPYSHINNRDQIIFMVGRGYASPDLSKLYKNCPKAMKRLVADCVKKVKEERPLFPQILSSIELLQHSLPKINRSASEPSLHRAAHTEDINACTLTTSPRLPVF
Sequence of C-Raf FL (P63104 whole entry partner): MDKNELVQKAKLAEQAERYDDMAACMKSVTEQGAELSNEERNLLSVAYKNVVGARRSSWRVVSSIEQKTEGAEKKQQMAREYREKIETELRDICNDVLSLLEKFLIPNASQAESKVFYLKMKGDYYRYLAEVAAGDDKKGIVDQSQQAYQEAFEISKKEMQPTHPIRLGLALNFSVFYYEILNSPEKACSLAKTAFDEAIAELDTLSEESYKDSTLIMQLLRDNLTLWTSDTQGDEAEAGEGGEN

Point of comparison: `Cc1ccc(NC(=O)c2ccnc(C(C)(F)F)c2)cc1-c1c[nH]c(=O)c(C2(O)COC2)c1` [Example 13, 2-(1,1-difluoroethyl)-N-(3-(5-(3-hydroxyoxetan-3-yl)-6-oxo-1,6-dihydropyridin-3-yl)-4-methylphenyl)isonicotinamide], IC50 1 nM. Against it:
- Cc1ccc(NC(=O)c2cc(C(F)(F)F)ccn2)cc1-c1cc2c(c(C3CCOCC3)c1)NC(=O)C(C)(CO)O2 (single isomer, unassigned) [Example 194, N-(3-(2-(hydroxymethyl)-2-methyl-3-oxo-5-(tetrahydro-2H-pyran-4-yl)-3,4-dihydro-2H-benzo [b][1,4]oxazin-7-yl)-4-methylphenyl)-4-(trifluoromethyl) picolinamide carboxamide] — 14-fold lower, 0.07 nM
- Cc1ccc(NC(=O)c2ccnc(C(F)(F)F)c2)cc1-c1cc(C2(O)COC2)cc(C2(F)COC2)c1 [Example 135, N-(3′-(3-fluorooxetan-3-yl)-5′-(3-hydroxyoxetan-3-yl)-6-methyl-[1,1′-biphenyl]-3-yl)-2-(trifluoromethyl)isonicotin-amide] — 1.7-fold lower, 0.605 nM
- CCOc1nnc(-c2cc(NC(=O)c3cnc(N4CCN(CC)CC4)c(C(F)(F)F)c3)ccc2C)cc1C1CCOCC1 [Example 241, N-(3-(6-ethoxy-5-(tetrahydro-2H-pyran-4-yl)pyridazin-3-yl)-4-methylphenyl)-6-(4-ethylpiperazin-1-yl)-5-(trifluoromethyl) nicotinamide] — 10-fold lower, 0.1 nM
- Cc1ccc(NC(=O)c2ccnc(C#N)c2)cc1-c1cc(OC[C@H](O)CO)nc(C2CCOCC2)c1 [Example 279, (R)-2-cyano-N-(3-(2-(2,3-dihydroxypropoxy)-6-(tetrahydro-2H-pyran-4-yl)pyridin-4-yl)-4-methylphenyl) isonicotinamide] — 14-fold lower, 0.07 nM
- CCOc1ncc(-c2cc(NC(=O)c3ccnc(C(C)(C)C#N)c3)ccc2C)cc1C1(C#N)CCOC1 (stereo not drawn) [Example 169, 2-(2-cyanopropan-2-yl)-N-(3-(5-(3-cyanotetrahydrofuran-3-yl)-6-ethoxypyridin-3-yl)-4-methylphenyl) isonicotinamide] — 2-fold higher, 2 nM
- CCOc1ncc(-c2cc(NC(=O)c3ccnc(C(C)(C)F)c3)cnc2C)cc1C1(C)COC1 [Example 3, N-(6′-ethoxy-2-methyl-5′-(3-methyloxetan-3-yl)-[3,3′-bipyridin]-5-yl)-2-(2-fluoropropan-2-yl)isonicotinamide] — 2-fold lower, 0.5 nM
- Cc1ccc(NC(=O)c2ccnc(C(F)(F)F)c2)cc1-c1cc(OCCO)nc(C2(F)CCOCC2)c1 [Example 306, N-(3-(2-(4-fluorotetrahydro-2H-pyran-4-yl)-6-(2-hydroxy-ethoxy)pyridin-4-yl)-4-methyl-phenyl)-2-(trifluoromethyl) isonicotinamide] — within 1.5-fold, 0.83 nM
- Cc1ccc(NC(=O)c2ccnc(C(F)(F)F)c2)cc1-c1cc(C2CCOCC2)c(N[C@@H](C)CO)nn1 [Example 309, (S)-N-(3-(6-((1-hydroxypropan-2-yl)amino)-5-(tetrahydro-2H-pyran-4-yl)pyridazin-3-yl)-4-methylphenyl)-2-(trifluoromethyl) isonicotinamide] — 50-fold lower, 0.02 nM
- Cc1ncc(NC(=O)c2ccc(CO)c(C(F)(F)F)c2)cc1-c1cccc(C2COC2)c1 [Example 7] — the same, 1 nM
- CCN1CCC(Oc2nnc(-c3cc(NC(=O)c4ccnc(C(F)(F)F)c4)ccc3C)cc2C2CCOCC2)CC1 [Example 314, N-(3-(6-((1-ethylpiperidin-4-yl)oxy)-5-(tetrahydro-2H-pyran-4-yl)pyridazin-3-yl)-4-methylphenyl)-2-(trifluoromethyl) isonicotinamide] — 17-fold lower, 0.06 nM
- Cc1ccc(NC(=O)c2cc(C(F)(F)F)cnn2)cc1-c1cc(OCCO)nc(C2CCOCC2)c1 [Example 258, N-(3-(2-(2-hydroxyethoxy)-6-(tetrahydro-2H-pyran-4-yl)pyridin-4-yl)-4-methylphenyl)-5-(trifluoromethyl) pyridazine-3-carboxamide] — 50-fold lower, 0.02 nM
- Cc1ccc(NC(=O)c2cnnc(C(F)(F)F)c2)cc1-c1cc(OCCO)nc(C2CCOCC2O)c1 (stereo not drawn) [Example 245] — the same, 1 nM
- Cc1ccc(NC(=O)c2ccnc(C(C)(C)C#N)c2)cc1-c1cc(OCCO)nc(C2(C)CCOCC2)c1 [Example 208, 2-(2-cyanopropan-2-yl)-N-(3-(2-(2-hydroxyethoxy)-6-(4-methyltetrahydro-2H-pyran-4-yl)pyridin-4-yl)-4-methylphenyl) isonicotinamide] — 2-fold lower, 0.5 nM
- CCOc1ncc(-c2cc(NC(=O)c3ccnc(C(C)(C)F)c3)cnc2C)cc1C1(CO)CCOC1 (stereo not drawn) [Example 292, N-(6′-ethoxy-5′-(3-(hydroxymethyl)tetrahydrofuran-3-yl)-2-methyl-[3,3′-bipyridin]-5-yl)-2-(2-fluoropropan-2-yl)isonicotinamide] — 9-fold higher, 9 nM
- Cc1ccc(NC(=O)c2ccnc(C(F)(F)F)c2)cc1-c1cc(C2CCOCC2)c(OC(C)C)nn1 [Example 316, N-(3-(6-isopropoxy-5-(tetrahydro-2H-pyran-4-yl)pyridazin-3-yl)-4-methylphenyl)-2-(trifluoromethyl) isonicotinamide] — 10-fold lower, 0.1 nM
- Cc1ccc(NC(=O)c2cc(C(F)(F)F)ccn2)cc1-c1cc(OCCO)nc(C2(C)CCOCC2)c1 [Example 209, N-(3-(2-(2-hydroxyethoxy)-6-(4-methyltetrahydro-2H-pyran-4-yl)pyridin-4-yl)-4-methylphenyl)-4-(trifluoromethyl) picolinamide] — 5-fold lower, 0.2 nM
- CCOc1ncc(-c2cc(NC(=O)c3ccnc(C(C)(C)C#N)c3)ccc2C)cc1C1(CO)CCOC1 (stereo not drawn) [Example 289, 2-(2-cyanopropan-2-yl)-N-(3-(6-ethoxy-5-(3-(hydroxymethyl)tetrahydrofuran-3-yl)pyridin-3-yl)-4-methylphenyl) isonicotinamide] — 2-fold higher, 2 nM
- CCOc1ncc(-c2cc(NC(=O)c3ccnc(C(F)(F)F)c3)ccc2C)cc1C1(C#N)CCOC1 (stereo not drawn) [Example 168, N-(3-(5-(3-cyanotetrahydrofuran-3-yl)-6-ethoxypyridin-3-yl)-4-methylphenyl)-2-(trifluoromethyl) isonicotinamide] — 3.3-fold lower, 0.3 nM
- Cc1ccc(NC(=O)c2ccnc(C(F)(F)F)c2)cc1-c1cc(OCCO)nc(C2(CO)CCOCC2)c1 [Example 215] — 10-fold lower, 0.1 nM
- Cc1ccc(NC(=O)c2ccnc(C(C)(F)F)c2)cc1-c1cc2c(c(C3CCOCC3)c1)NC(=O)C(C)(CO)O2 (stereo not drawn) [Example 191, 2-(1,1-difluoroethyl)-N-(3-(2-(hydroxymethyl)-2-methyl-3-oxo-5-(tetrahydro-2H-pyran-4-yl)-3,4-dihydro-2H-benzo [b][1,4]oxazin-7-yl)-4-methylphenyl) isonicotinamide] — 10-fold lower, 0.1 nM
- Cc1ncc(NC(=O)c2cccc(C(F)(F)F)c2)cc1-c1cc(OCCO)nc(C2(CF)COC2)c1 [Example 132, N-(2′-(3-(fluoromethyl)oxetan-3-yl)-6′-(2-hydroxyethoxy)-2-methyl-[3,4′-bipyridin]-5-yl)-3-(trifluoromethyl)benzamide] — 12-fold lower, 0.0853 nM
- Cc1ccc(NC(=O)c2ccnc(C(F)(F)F)c2)cc1-c1cc(C2CCOCC2)nc(N(CCO)CCO)c1 [Example 176] — within 1.5-fold, 0.684 nM
- Cc1ccc(NC(=O)c2cc(C(F)(F)F)ccn2)cc1-c1cc(OCCO)nc(C2CCOCC2O)c1 (single isomer, unassigned) [Example 248] — within 1.5-fold, 0.7 nM
